Experiment [1] deals with T1, Carbonic anhydrase 15 (Mus musculus, UniProt Q99N23).
T1 sequence (Q99N23 whole entry): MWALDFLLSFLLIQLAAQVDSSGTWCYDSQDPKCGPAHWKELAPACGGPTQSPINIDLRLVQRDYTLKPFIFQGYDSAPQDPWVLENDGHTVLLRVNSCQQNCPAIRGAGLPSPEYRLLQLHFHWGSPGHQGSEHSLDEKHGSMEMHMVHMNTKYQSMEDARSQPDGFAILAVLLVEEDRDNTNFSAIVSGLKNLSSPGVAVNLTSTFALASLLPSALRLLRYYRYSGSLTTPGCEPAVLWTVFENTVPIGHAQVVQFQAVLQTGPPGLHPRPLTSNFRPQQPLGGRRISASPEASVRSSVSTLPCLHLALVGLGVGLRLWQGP
Description: Inhibition of mouse recombinant carbonic anhydrase 15 by stopped-flow CO2 hydrase assay

Experiment [2] addresses Carbonic anhydrase 2 (Homo sapiens, UniProt P00918).
Description: Inhibition of human carbonic anhydrase 2 by stopped-flow CO2 hydrase assay
The target of experiment [3] is Carbonic anhydrase 1 (Homo sapiens, UniProt P00915).
Description: Inhibition of human carbonic anhydrase 1 by stopped-flow CO2 hydrase assay

Each structure is given as a SMILES string. pKi: −log10 of the molar value.

Carbonic anhydrase 1, sequence (P00915 whole entry): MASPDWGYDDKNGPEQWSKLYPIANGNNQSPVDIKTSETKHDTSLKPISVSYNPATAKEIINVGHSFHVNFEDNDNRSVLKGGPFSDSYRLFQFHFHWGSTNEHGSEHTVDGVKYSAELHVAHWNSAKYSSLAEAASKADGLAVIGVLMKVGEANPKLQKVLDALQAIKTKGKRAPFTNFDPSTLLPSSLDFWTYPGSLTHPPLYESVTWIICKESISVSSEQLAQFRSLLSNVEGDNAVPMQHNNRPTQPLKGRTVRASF

Turning to `Oc1cc(F)cc(F)c1`, the negative-log Ki (pKi) in experiment [1] was 4.95.
Consider `Oc1cc(F)ccc1F`, for which the pKi in experiment [2] is 3.06; in experiment [3] it was 3.87; in experiment [1], 3.67.
For `Nc1ccc(O)cc1` [4-AMINOPHENOL], the pKi in experiment [1] is 3.47.
For `N#Cc1ccc(O)cc1` [4-CYANOPHENOL], the figures for the negative-log Ki (pKi) in experiment [3] and in experiment [1] were 3.88 and 3.36, respectively.
Consider `CC(=O)Nc1ccc(O)cc1` [ACETAMINOPHEN], for which the negative-log Ki (pKi) in experiment [2] is 5.21; in experiment [3], 5.00; in experiment [1] it was 5.03.
For `Oc1ccccc1O` [CATECHOL] the same measures were 5.00, 2.40 and 4.99.
Take `Oc1c(I)cc(Cl)c2cccnc12` [CLIOQUINOL]: the pKi in experiment [1] was 5.63.
For the compound `Oc1ccc(O)cc1` [HYDROQUINONE], the negative logarithm of the Ki (pKi) in experiment [3] and in experiment [1] was 4.97 in each case.
As for `O=C(O)c1ccc(O)cc1` [PARABEN], the negative logarithm of the Ki (pKi) in experiment [3] is 5.01; in experiment [1], 5.03.
As for `Oc1ccccc1` [PHENOL], in experiment [1], the pKi was 4.98.
Regarding `Oc1cccc(O)c1` [RESORCINOL], the results for the pKi in experiment [3] and in experiment [1] were 3.10 and 3.41, respectively.

The term pKi denotes −log10 of the Ki, conventionally taken in molar units.

Values taken from ChEMBL document CHEMBL1145574, “Carbonic anhydrase inhibitors: Inhibition of the new membrane-associated isoform XV with phenols” (Bioorg Med Chem Lett, 2008).
